The record followed here is patent US11059823B2, “Small molecule inhibitors of the JAK family of kinases” (Janssen Pharmaceutica NV, priority 2016, dated 2021).

The subject of series [1] is IL-2 pSTAT5 (JAK1/JAK3). Put plainly: IL-2 pSTAT5 (JAK1/JAK3) cellular assay in PBMCs (AlphaLISA). The class given is cell-based. As to conditions: PBMC, IL-2 5 ng/mL. As to the method: For all compounds tested, there was measured inhibition of STAT phosphorylation with all three stimuli.
The AlphaLISA assay (based on Alpha Technology from PerkinElmer) was performed by first plating freshly thawed PBMCs (Biological Specialty Corporation) in 384-well plates at 30,000 cells per 4 μL per well in HBSS (Hanks' Balanced Salt Solution) containing 0.1% IgG (immunoglobulin G)-free, protease-free BSA (bovine serum albumin) (Jackson ImmunoResearch Cat. No. 001-000-161). The cells were then treated with 2 μL/well of compounds diluted in DMSO at half-log titrated concentrations, with a highest test concentration of 10 μM and 0.5% final DMSO concentration, for thirty minutes at 37° C. […] The cellular reactions were terminated by the addition of 2 μL/well of lysis buffer (PerkinElmer Cat. No. ALSU-PST5-A10K) followed by an incubation of five minutes at room temperature. […] Finally, the plates were read on a PerkinElmer EnVision for detection of the time-resolved fluorescence signal. The percentage of IL-2-dependent pSTAT5 inhibition was determined at the compound test concentrations; and for each compound, a dose curve was generated and the IC50 was calculated. Compound IC50 was calculated by nonlinear regression, sigmoidal dose response analysis of the half-log dilution titration curve of the compound concentration vs. Alpha signal. […]
Background: Alpha assays give light when donor and acceptor beads are brought close together.

In series [2] the test system is P-gp (MDR1). Put plainly: MDCK-MDR1 permeability assay. Format: in vitro ADME. The conditions noted are these: dog. As to the method: Permeability measurements were conducted according to the Cyprotex protocol using the MDCK-MDR1 cell line obtained from the NIH (Rockville, Md., USA). […] The cells in this assay form a cohesive sheet of a single cell layer filing the surface area of the culture dish, also known as a confluent monolayer, and on day four the test compound was added to the apical side of the membrane and the transport of the compound across the monolayer was monitored over a time period of 60 min.
Test compounds were dissolved in DMSO at a concentration of 10 mM. The dosing solutions were prepared by diluting test compound with assay buffer (Hanks Balanced Salt Solution), pH 7.4, at a final concentration of 5 μM. For assessment of apical to basolateral (“A-B”) permeability, buffer was removed from the apical compartment and replaced with test compound dosing solution with or without the permeability glycoprotein (“PgP”, “P-gP”, “Pgp” or “P-gp”) inhibitor elacridar (2 μM). For assessment of basolateral to apical (“B-A”) permeability, buffer was removed from the companion plate and replaced with test compound dosing solution. Incubations were carried out in duplicate at 37° C. in an atmosphere of 5% CO2 with a relative humidity of 95%. Each assay included the reference markers propranolol (high permeability) and prazosin (PgP substrate). After incubation for 60 minutes, apical and basolateral samples were diluted and test compounds quantified by LC/MS/MS using an 8-point calibration in the range 0.0039 to 3 μM with appropriate dilution of the samples (receiver dilution factor=1; donor and Co dilution factor=10). The permeability coefficient (Papp) for each compound was calculated from the following equation: Papp=(dQ/dt)/(C0×S), where dQ/dt is the rate of permeation of the drug across the cells, C0 is the donor compartment concentration at time zero, and S is the area of the cell monolayer.
Papp(A-B) gives an indication of permeation extent across the cells in this assay, which is envisaged to model the transcellular transport across Pgp-expressing cells, such as Pgp-expressing gastrointestinal tract cells.

The term IC50 denotes the concentration at which inhibition is half-maximal. A lower IC50 goes with greater potency in that assay. The term Papp A→B denotes the apparent permeability from the apical to the basolateral side of a cell layer. As usually defined, the Papp B→A is how fast a substance crosses the layer from the basolateral side. In turn, `N#CC[C@H]1CC[C@H](n2c(-c3c[nH]cn3)nc3cnc4[nH]ccc4c32)CC1` [Ex. 2, 2-((1r,4r)-4-(2-(1H-Imidazol-4-yl)imidazo[4,5-d]pyrrolo[2,3-b]pyridin-1(6H)-yl)cyclohexyl)acetonitrile] displayed an IC50 in series [1] of 9 nM. Further, the Papp A→B at 60 min, 5 µM in series [2] (MDCK-MDR1, pH 7.4, apical-to-basolateral, without elacridar, 5 μM, 60 min) is 11 nm/s. In series [2] (MDCK-MDR1, pH 7.4, basolateral-to-apical, 5 μM, 60 min), this molecule gave an apparent permeability from basolateral to apical (Papp B→A) at 60 min, 5 µM of 48 nm/s. Moreover, the efflux ratio at 60 min, 5 µM in series [2] (pH 7.4, MDCK-MDR1, 5 μM, read-out: Papp(B-A)/Papp(A-B) (efflux ratio)) came out at 4.4.
